Reference: the NIST ThermoML archive (doi:10.1016/j.jct.2016.09.008)
± gives the expanded uncertainty stated by the source.

Experiments:
[1] = 298.15 K; 101.33 kPa; Liquid; Vibrating tube method
[2] = refractive index (Na D-line) (dimensionless); conditions: 298.15 K; 101.33 kPa; Liquid; Standard Abbe refractometry
[3] = wn = mass fraction of the nth substance listed; conditions: 298.15 K; 101.1 kPa; Liquid; Vibrating tube method; w1 = 0.85
[4] = refractive index (Na D-line) (dimensionless); wn = mass fraction of the nth substance listed; conditions: 298.15 K; 101.1 kPa; Liquid; Standard Abbe refractometry; w1 = 0.85

Row | mass density [1] [kg/m3] | refractive index [2] | mass density [3] [kg/m3] | refractive index [4] | SMILES
1 | 1198.3 ± 2.4 | 1.419 ± 0.0005 | – | – | CC1COC(=O)O1 (stereo not given) [4-methyl-1,3-dioxolan-2-one]
2 | – | – | 1682.8 ± 2.5 | 1.432 ± 0.0005 | O=P(O)(O)O [phosphoric acid] + O
3 | – | 1.3326 ± 0.0005 | – | – | O [water]
